According to patent publication US4912036A, “Rapid differentiation of bacteria using cyclic polypeptide antibiotics” (Eastman Kodak Company, priority 1986, dated 1990):

Legend:
S. faecalis = test: MTT reduction solution assay, ΔOD 540 nm; format: cell-based, Streptococcus faecalis; conditions: S. faecalis (+) 5×10^7, gramicidin S 0.00625 mg/ml, 37° C.
Experimental: (§1) These examples illustrate the differentiation of bacteria using a tetrazolium salt and phenolic dye as the reducible compounds and two cyclic polypeptide antibiotics according to the present invention. The tetrazolium salt was 3-(4,5-dimethyl-2-thiazolyl) -2,5-diphenyl-2H-tetrazolium bromide (MTT) which forms a colored formazan dye when reduced. The phenolic dye was 2,6-dichloroindophenol (DCIP) which forms a colorless species when reduced.
(§2) Solutions of the reducible compounds were prepared with the following: HEPES buffer (3 ml, 0.05 molar, pH 7.5), TRITON X-100 nonionic surfactant (1% concentration), glucose (50 μl of 10% in water), tryptose (50 μl of a 10% solution in water), MTT (25 μl of 5 mg/ml methanol) or DCIP (25 μl of 3 mg/ml methanol) and phenazine methosultate ETA (25 μl of 3 mg/ml methanol).
(§3) Test solutions were prepared from the following: reducible compound solution from above (200 μl), 50 μl of either gramicidin S solution (6 mg/ml methanol and 9 ml of buffer) or tyrocidin solution (100 mg/ml methanol and 8 ml of buffer) and 50 μl of cell suspension. […] The change in optical density (ΔOD) was determined after 30 minutes at 37° C. at 540 nm for the MTT assay and at 620 nm for the DCIP assay using a commercially available spectrophotometer.

S. aureus = test: MTT reduction solution assay, ΔOD 540 nm; format: cell-based, Staphylococcus aureus; conditions: S. aureus (+) 5×10^7, gramicidin S 0.00625 mg/ml, 37° C.
Experimental: as §1, §2, §3

[1] = test system: viable gram-positive and gram-negative bacteria; test: Differentiation in RIND XXIX solution assays, overall result; format: cell-based; conditions: gramicidin S 0.1 mg/ml, tyrocidin 3.3 mg/ml
Experimental: (§4) Each test solution contained the following: dispersion of RIND XXIX (25 μl) prepared as described above, glucose (400 μl of 10% aqueous solution), tryptose (400 μl of 10% aqueous solution), trimethyl-1,4-benzoquinone ETA (500 μl of 1.5 mg/ml methanol). Aliquots (200 μl) of the mixture were mixed with solutions of the antibiotics (50 μl). The cell suspensions (50 μl) were then added. The final concentration of gramcidin S and tyrocidin were 0.1 mg/ml and 3.3 mg/ml, respectively. The final cell concentration was about 5×10^7 cells/ml. Cell control solutions contained all reagents except antibiotics. Background controls consisted of both buffer and solution controls. The buffer control contained all reagents except antibiotics and cells. The solution control contained all reagents except cells.
(§5) The solutions were incubated at 37° C. for 30 minutes, and the change in fluorescence emission (Δ fluorescence) was determined as the difference between the readings taken when the solutions were first mixed and then after 30 minutes incubation. Measurements were made in a commercially available MICROFLUOR Reader (available from Dynatech Laboratories, Alexandria, Virginia, U.S.A.), modified with an excitation filter at 540 nm, an emission filter at 620 nm and a Xenon lamp.
This example illustrates the practice of this invention to identify a Proteus species in solution. Test solutions and cell control solutions were prepared and tested as described in Example 2 and 3 except that polymixin B was used at 0.01 mg/ml of methanol. The final cell concentration was about 5×10^7 cells/ml.

P. vulgaris = test: RIND XXIX reduction solution assay, Δ fluorescence; format: cell-based, Proteus vulgaris; conditions: P. vulgaris (gram -) about 5×10^7 cells/ml, gramicidin S 0.1 mg/ml, 37° C.
Experimental: Bacterial suspensions were prepared by growing the cells in BHT broth to stationary phase overnight at 37° C. P. auruginosa was grown with agitation. About 40 ml of each overnight culture was centrifuged, decanted and washed once with 0.05 molar potassium phosphate buffer or 0.05 molar N-2-hydroxy-ethylpiperazine-N'-2-ethanesulfonic acid (HEPES) buffer, pH 7.8, and resuspended in buffer.
Dispersions containing RIND compounds were prepared by dissolving the RIND compound in N,N-dimethylformamide (DMF) at 16 mg compound per ml of solvent. An aliquot (250 μl) of the resulting solution was added to 500 μl of TRITON X-100 surfactant. This mixture was then added dropwise with stirring to 25 ml of 0.05 molar HEPES buffer. A dispersion of RIND XXIX was prepared similarly except that DMF was acidified with 0.1% sulfuric acid. Compositions containing water-compatible RIND compounds were prepared as described above except the surfactant was omitted.
as §4, with “The buffer control contained all reagents except antibiotics and cells. The solution control contained all reagents except cells.” left out
as §5, with “lamp. […]” for “lamp.”

K. pneumoniae = test: MTT reduction solution assay, ΔOD 540 nm; format: cell-based, Klebsiella pneumoniae; conditions: K. pneumoniae (-) 5×10^7, gramicidin S 0.00625 mg/ml, 37° C.
Experimental: as §1, §2, §3

gramicidin S
ΔOD, 540 nm after 30 Minutes (S. faecalis): 0.073
ΔOD, 540 nm after 30 Minutes (S. aureus): 0.177
differentiation between viable gram-positive and gram-negative bacteria, in words [1]: can be used with RIND XXIX to differentiate between viable gram-positive and gram-negative bacteria
Δ Fluorescence (30 Minutes) (P. vulgaris): 3491
ΔOD, 540 nm after 30 Minutes (K. pneumoniae): 1.207
